Publication PMC10004195, “Novel Dual-Target Kinase Inhibitors of EGFR and ALK Were Designed, Synthesized, and Induced Cell Apoptosis in Non-Small Cell Lung Cancer” (Molecules, 2023)
Like-named read-outs stand apart in the source and are kept apart here.

Columns and labels:
H2228 (EML4-ALK) cells = assay: CCK8 antiproliferative assay, H2228 cells; assay type: cell-based, human; conditions: read-out: IC50 H2228
Description: (§1) The human cancer cell lines (H1975, H2228) used in this study were purchased from the Guangzhou ginny ou biotechnology Co., Ltd. (Guangzhou, China). The human cancer cell lines (NCI-H522) used in this study were purchased from the Shenzhen Haodi Huatuo Biotechnology Co., LTD (Shenzhen, China). The human cancer cell lines (LOVO, HLF, BJ, LO2) used in this study were purchased from the Laboratory Animal Service Center at Sun Yat-sen University (Guangzhou, China). […] Cell lines LOVO, HLF, BJ, and LO2 were cultivated in DMEM containing 10% (v/v) heat-inactivated fetal bovine serum (FBS), 100 units/mL penicillin, and 100 μg/mL streptomycin.

[1] = system: H1975 (EGFR T790M/L858R) cells; assay: CCK8 antiproliferative assay, H1975 cells; assay type: cell-based, human
Description: as §1

H522 cells = assay: CCK8 antiproliferative assay, H522 cells; assay type: cell-based; conditions: Homo sapiens, NCI-H522, 72 h
Description: The human cancer cell lines (H1975, H2228) used in this study were purchased from the Guangzhou ginny ou biotechnology Co., Ltd. (Guangzhou, China). The human cancer cell lines (NCI-H522) used in this study were purchased from the Shenzhen Haodi Huatuo Biotechnology Co., LTD (Shenzhen, China). The human cancer cell lines (LOVO, HLF, BJ, LO2) used in this study were purchased from the Laboratory Animal Service Center at Sun Yat-sen University (Guangzhou, China). Cell lines were cultivated in 1640 containing 10% (v/v) heat-inactivated fetal bovine serum (FBS), 100 units/mL penicillin, and 100 μg/mL streptomycin. Cell lines LOVO, HLF, BJ, and LO2 were cultivated in DMEM containing 10% (v/v) heat-inactivated fetal bovine serum (FBS), 100 units/mL penicillin, and 100 μg/mL streptomycin.

[2] = system: 293A (human embryonic kidney cells); assay: Cytotoxicity test on nontumorigenic cells, 293A; assay type: cell-based; conditions: Homo sapiens, 293A, read-out: Toxicity to normal cells, IC50 293A
Description: (§2) It is critical to evaluate the balance between the safety and efficacy of drugs for the development of new drugs; thus, we then conducted a cytotoxicity test on […] types of nontumorigenic cell lines from different origins, including LO2 (human normal liver cells), HK2 (human kidney proximal convoluted tubule epithelial cells), HLF (human embryonic lung fibroblast), 293A (human embryonic kidney cells), and HUVEC (human umbilical vein endothelial cells). […] In addition, we evaluated the compound’s safety in vivo by performing acute toxicity tests in mice, and 9j was injected intravenously at concentrations of 100 mg/kg, 150 mg/kg, and 300 mg/kg.
(§3) A total of 7000 cells per well were seeded in a 96-well plate with at least three technical replicates; then, exposed to different concentrations (10, 5, 1, 0.1, 0.05, 0.01 uM) of the test compounds for 72 h. After the treatment, CCK8 (Sigma, St. Louis, MO, USA) was added to each well under sterile conditions (to a final concentration of 10% of the total volume) and the plates were incubated for 2–4 h at 37 °C. Absorbance was measured at 450 nm in a microplate reader.

[3] = system: HLF (human embryonic lung fibroblast); assay: Cytotoxicity test on nontumorigenic cells, HLF; assay type: cell-based; conditions: Homo sapiens, Fibroblast, read-out: Toxicity to normal cells, IC50 HLF
Description: as §2, §3

[4] = system: LO2 (human normal liver cells); assay: Cytotoxicity test on nontumorigenic cells, LO2; assay type: cell-based; conditions: Homo sapiens; LO2, mean ± SE; read-out: Toxicity to normal cells, IC50 LO2
Description: as §2, §3

[5] = system: HUVEC (human umbilical vein endothelial cells); assay: Cytotoxicity test on nontumorigenic cells, HUVEC; assay type: cell-based; conditions: Homo sapiens; HUVEC, mean ± SE; read-out: Toxicity to normal cells, IC50 HUVEC
Description: as §2, §3

[6] = system: HK2 (human kidney proximal convoluted tubule epithelial cells); assay: Cytotoxicity test on nontumorigenic cells, HK2; assay type: cell-based; conditions: Homo sapiens, Epithelial cell; HK2, mean ± SE; read-out: Toxicity to normal cells, IC50 HK2
Description: as §2, §3

[7] = Homo sapiens, NCI-H2228, 72 h, CCK8 assay, 72 h, H2228 (EML4-ALK)
[8] = Homo sapiens, NCI-H1975, 72 h, CCK8 assay, 72 h, H1975 (EGFR T790M/L858R), read-out: IC50 H1975
[9] = CCK8 assay, 72 h, H1975 (EGFR T790M/L858R), read-out: IC50 H1975

SMILES | IC50 (H2228 (EML4-ALK) cells; [7]) [µM] | IC50 [1, 8] [µM] | IC50 (H522 cells) [µM] | also measured
C=CC(=O)Nc1cc(Nc2ncc(Cl)c(Nc3ccccc3[S+]([O-])C3CC3)n2)c(OC)cc1C1CCN(C)CC1 (stereo not shown) [9a, N-(5-((5-Chloro-4-((2-(cyclopropylsulfinyl)phenyl)amino)pyrimidin-2-yl)amino)-4-methoxy-2-(1-methylpiperidin-4-yl)phenyl)acrylamide] | 0.121 ± 0.09 | 0.451 ± 0.07 | > 10 | 
C=CC(=O)Nc1cc(Nc2ncc(Cl)c(Nc3ccccc3[S+]([O-])CC3CC3)n2)c(OC)cc1C1CCN(C)CC1 (stereo not shown) [9b, N-(5-((5-Chloro-4-((2-((cyclopropylmethyl)sulfinyl)phenyl)amino)pyrimidin-2-yl)amino)-4-methoxy-2-(1-methylpiperidin-4-yl)phenyl)acrylamide] | 0.0989 | 0.0689 | > 10 | IC50 (H2228 (EML4-ALK) cells; CCK8 assay, 72 h, H2228 (EML4-ALK)): 0.099 ± 0.007 µM; IC50 [1, 9]: 0.0689 ± 0.007 µM
C=CC(=O)Nc1cc(Nc2ncc(Cl)c(Nc3ccc(F)cc3[S+]([O-])CC3CC3)n2)c(OC)cc1C1CCN(C)CC1 (stereo not shown) [9c, N-(5-((5-Chloro-4-((2-((cyclopropylmethyl)sulfinyl)-4-fluorophenyl)amino)pyrimidin-2-yl)amino)-4-methoxy-2-(1-methylpiperidin-4-yl)phenyl)acrylamide] | 0.103 ± 0.07 | 0.271 ± 0.13 | > 10 | 
C=CC(=O)Nc1cc(Nc2ncc(Cl)c(Nc3ccc(Cl)cc3[S+]([O-])CC3CC3)n2)c(OC)cc1C1CCN(C)CC1 (stereo not shown) [9d, N-(5-((5-Chloro-4-((4-chloro-2-((cyclopropylmethyl)sulfinyl)phenyl)amino)pyrimidin-2-yl)amino)-4-methoxy-2-(1-methylpiperidin-4-yl)phenyl)acrylamide] | 0.089 ± 0.03 | 0.114 ± 0.08 | > 10 | 
C=CC(=O)Nc1cc(Nc2ncc(Cl)c(Nc3ccccc3[S+]([O-])CC)n2)c(OC)cc1C1CCN(C)CC1 (stereo not shown) [9e, N-(5-((5-Chloro-4-((2-(ethylsulfinyl)phenyl)amino)pyrimidin-2-yl)amino)-4-methoxy-2-(1-methylpiperidin-4-yl)phenyl)acrylamide] | 0.0977 ± 0.05 | 0.17 ± 0.02 | > 10 | 
C=CC(=O)Nc1cc(Nc2ncc(Cl)c(Nc3ccc(F)cc3[S+]([O-])CC)n2)c(OC)cc1C1CCN(C)CC1 (stereo not shown) [9f, N-(5-((5-Chloro-4-((2-(ethylsulfinyl)-4-fluorophenyl)amino)pyrimidin-2-yl)amino)-4-methoxy-2-(1-methylpiperidin-4-yl)phenyl)acrylamide] | 0.0928 ± 0.06 | 0.549 ± 0.09 | > 10 | 
C=CC(=O)Nc1cc(Nc2ncc(Cl)c(Nc3ccc(Cl)cc3[S+]([O-])CC)n2)c(OC)cc1C1CCN(C)CC1 (stereo not shown) [9g, N-(5-((5-Chloro-4-((4-chloro-2-(ethylsulfinyl)phenyl)amino)pyrimidin-2-yl)amino)-4-methoxy-2-(1-methylpiperidin-4-yl)phenyl)acrylamide] | 0.104 ± 0.05 | 0.069 ± 0.01 | > 10 | 
C=CC(=O)Nc1cc(Nc2ncc(Cl)c(Nc3ccccc3[S+]([O-])C(C)C)n2)c(OC)cc1C1CCN(C)CC1 (stereo not shown) [9h, N-(5-((5-Chloro-4-((2-(isopropylsulfinyl)phenyl)amino)pyrimidin-2-yl)amino)-4-methoxy-2-(1-methylpiperidin-4-yl)phenyl)acrylamide] | 0.0766 ± 0.02 | 0.0689 to 0.0782 | > 10 | IC50 [1, 9]: 0.0839 ± 0.03 µM
C=CC(=O)Nc1cc(Nc2ncc(Cl)c(Nc3ccc(F)cc3[S+]([O-])C(C)C)n2)c(OC)cc1C1CCN(C)CC1 (stereo not shown) [9i, N-(5-((5-Chloro-4-((4-fluoro-2-(isopropylsulfinyl)phenyl)amino)pyrimidin-2-yl)amino)-4-methoxy-2-(1-methylpiperidin-4-yl)phenyl)acrylamide] | 0.0981 ± 0.06 | 0.309 ± 0.11 | > 10 | 
Cc1cc(Nc2ncc(Cl)c(Nc3ccccc3S(=O)(=O)C(C)C)n2)c(OC(C)C)cc1C1CCNCC1 [Ceritinib, reference compound] | 0.0221 ± 0.008 | 0.0783 ± 0.03 |  | 
C=CC(=O)Nc1cc(Nc2nccc(-c3cn(C)c4ccccc34)n2)c(OC)cc1N(C)CCN(C)C [Osimertinib, reference compound] |  |  |  | IC50 [2]: 2.25 ± 0.02 µM; IC50 [3]: 3.24 ± 0.08 µM; IC50 [4]: 1.72 ± 0.05 µM; IC50 (H2228 (EML4-ALK) cells; Homo sapiens, NCI-H2228, 72 h): 2.016 ± 0.008 µM; IC50 ([1]; Homo sapiens, NCI-H1975, 72 h, read-out: IC50 H1975): 0.0041 ± 0.001 µM; IC50 ([1]; Homo sapiens, NCI-H1975, read-out: IC50 H1975 (Table 2)): 0.0041 ± 0.001 µM; IC50 [5]: 4.34 ± 0.01 µM; IC50 [6]: 2.13 ± 0.09 µM
